Data taken from publication PMC6539592, “Functional Analysis of Peptidyl-prolyl cis-trans Isomerase from Aspergillus flavus” (International Journal of Molecular Sciences, 2019).

Target: T1, ppci1 (Aspergillus flavus, UniProt B8NRT5)
T1 construct: E. coli BL21(DE3), modified pRSFDuet-1; N-terminal 6xHis tag removed with PreScission protease
Assay: chymotrypsin-coupled PPIase assay, absorbance at […] nm
Format: biochemical
Details: 15 °C, HEPES pH 8.0; substrate succinyl-AAPF-p-nitroanilide; figure labels traces FK506-CsA and FK506-Rap, possibly combined

T1 sequence (B8NRT5 1-122): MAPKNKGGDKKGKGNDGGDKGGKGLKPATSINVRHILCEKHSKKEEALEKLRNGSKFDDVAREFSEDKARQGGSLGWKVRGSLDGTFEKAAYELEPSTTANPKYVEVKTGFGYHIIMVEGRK

## C=CC[C@@H]1/C=C(\C)C[C@H](C)C[C@H](OC)[C@H]2O[C@@](O)(C(=O)C(=O)N3CCCC[C@H]3C(=O)O[C@H](/C(C)=C/[C@@H]3CC[C@@H](O)[C@H](OC)C3)[C@H](C)[C@@H](O)CC1=O)[C@H](C)C[C@@H]2OC [FK506, Tacrolimus]
  inhibition: activity of ppci1 was inhibited by these aforementioned drugs with constantly decreased absorption

## CO[C@H]1C[C@@H]2CC[C@@H](C)[C@@](O)(O2)C(=O)C(=O)N2CCCC[C@H]2C(=O)O[C@H]([C@H](C)C[C@@H]2CC[C@@H](O)[C@H](OC)C2)CC(=O)[C@H](C)/C=C(\C)[C@@H](O)[C@@H](OC)C(=O)[C@H](C)C[C@H](C)/C=C/C=C/C=C/1C [Rap, Rapamycin]
  inhibition: We found that FK506, CsA and Rapamycin inhibit the protein activity of ppci1
